The target of experiment [1] is T1, HRP Type VIA (Armoracia rusticana, UniProt P00433).
T1 sequence (P00433 31-338): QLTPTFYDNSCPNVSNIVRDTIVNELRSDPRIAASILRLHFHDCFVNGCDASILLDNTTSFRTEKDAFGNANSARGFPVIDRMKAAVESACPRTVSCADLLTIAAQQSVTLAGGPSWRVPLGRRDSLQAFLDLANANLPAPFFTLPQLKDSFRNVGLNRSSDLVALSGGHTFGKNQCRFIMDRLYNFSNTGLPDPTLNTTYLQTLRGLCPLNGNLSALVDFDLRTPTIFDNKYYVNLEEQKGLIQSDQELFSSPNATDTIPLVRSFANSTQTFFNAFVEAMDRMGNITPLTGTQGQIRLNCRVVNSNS

Experiment [2] has as its target T1, HRP Type VIA. Description: Effect of organoboron compounds on the luminol-hydrogen peroxide-HRP chemiluminescent reaction (Example 2). The settings on record: test; 5µl of 1mg/ml compound. More on the design: purchased Sigma Chemical Co. In kind it is biochemical, horseradish. As for the experimental part:
The stock solution of HRP Type VIA (1mg/ml) and luminol-hydrogen peroxide reagent were prepared as described previously. Luminol-hydrogen peroxide (100µl, 1:10 dilution) was mixed with either 10µl of HRP (1:50,000 dilution) or, 10µl of Tris buffer (0.1mol/l, pH 8.6). […] A control without any test compound was run in parallel.
The control consisted of buffer in place of the compound under test as an enhancer. […]

Where [3] appears, read: 0.01 mg/ml, 10µl test compound, control value in brackets not reported.
Where [4] appears, read: 0.1 mg/ml, 10µl test compound, control value in brackets not reported.

SMILES strings stand for the structures. Where two headings read alike, the source gives them in different places.

As to `OB(O)c1ccc(Cl)cc1` [Compound 1029, 4-chlorophenylboronic acid], on HRP Type VIA [1], the “(a) Decrease in background (without HRP with test cpd.)” value is reported as “Y”; the “(b) Increase in signal (with HRP, with test cpd.)” value (from here on “(b) Increase in signal”) is listed as “Y”; the “(c) Increase in signal: background ratio” value is “Y (key: Column (c) shows whether there was an increase in the signal:background ratio by over 25% of the control value (Y = yes; N = no)”.
As for `OB(O)c1ccccc1Cl` [Compound 1027, 2-chlorophenylboronic acid], the “(a) Decrease in background (without HRP with test cpd.)” value on HRP Type VIA [1] (0.01 mg/ml, 10µl test compound) is given as “Y”; on HRP Type VIA [1] (0.1 mg/ml, 10µl test compound), “Y”; on HRP Type VIA [1] (1 mg/ml, 10µl test compound) it was “Y”. Also, the “(b) Increase in signal” value is listed as “N” on HRP Type VIA [1] (0.01 mg/ml, 10µl test compound); “N” on HRP Type VIA [1] (0.1 mg/ml, 10µl test compound); “N” on HRP Type VIA [1] (1 mg/ml, 10µl test compound). The “(c) Increase in signal: background ratio” value on HRP Type VIA [1] (0.01 mg/ml, 10µl test compound) is given as “N (N = no)”; at HRP Type VIA [1] (0.1 mg/ml, 10µl test compound), “N (N = no)”; at HRP Type VIA [1] (1 mg/ml, 10µl test compound) it was “N (N = no)”. In addition, the “(d) Signal: Background: ratio (control = with no enhancer)” value on HRP Type VIA [1] (setting [3]) is recorded as 2.1 (2.0); at HRP Type VIA [1] (setting [4]) it was 3.2 (2.9).
With `OB(O)c1cccc(Cl)c1Cl` [Compound 1022, 2,3-dichlorophenylboronic acid], the “(a) Decrease in background (without HRP with test cpd.)” value on HRP Type VIA [1] (0.01 mg/ml, 10µl test compound) is “Y”; at HRP Type VIA [1] (0.1 mg/ml, 10µl test compound) it was “Y”; on HRP Type VIA [1] (1 mg/ml, 10µl test compound), “Y”. In addition, the “(b) Increase in signal” value on HRP Type VIA [1] (0.01 mg/ml, 10µl test compound) is “N”; at HRP Type VIA [1] (0.1 mg/ml, 10µl test compound), “N”; at HRP Type VIA [1] (1 mg/ml, 10µl test compound), “N”. The “(c) Increase in signal: background ratio” value is on record as “N (N = no)” on HRP Type VIA [1] (0.01 mg/ml, 10µl test compound); “Y (Column (c) shows whether there was an increase in the signal:background ratio by over 25% of the control value (Y = yes)” on HRP Type VIA [1] (0.1 mg/ml, 10µl test compound); “N (N = no)” on HRP Type VIA [1] (1 mg/ml, 10µl test compound). Moreover, the “(d) Signal: Background: ratio (control = with no enhancer)” value is 2.2 (2.0) at HRP Type VIA [1] (setting [3]) and 3.6 (2.7) on HRP Type VIA [1] (setting [4]).
Take `Clc1cc(Cl)c(OB(Oc2cc(Cl)c(Cl)cc2Cl)c2cc(Cl)c(Cl)cc2Cl)cc1Cl` [Compound 1039, di-(3',4',6'-trichlorophenoxy)-3,4,6-trichlorophenylborane]: on HRP Type VIA [1], the “(a) Decrease in background (without HRP with test cpd.)” value is listed as “Y”; the “(b) Increase in signal” value was “N”; the “(c) Increase in signal: background ratio” value was “N (key: column (a) shows whether the test compound lowered the light output from the luminol-hydrogen peroxide solution (Y = yes; N = no)”; the “(d) Signal: Background: ratio (control = with no enhancer)” value is given as 3.4 (2.9).
As for `OB(O)c1ccccc1` [Compound 5004, phenylboronic acid], at HRP Type VIA [2], the “Signal (no HRP)” value is reported as 5,601, the “Signal (with HRP)” value was 54,554 and the “Signal: Background ratio” value stood at 9.7.

For the origin of these results see patent EP0626016B1, “[…] […]” (BRITISH TECHNOLOGY GROUP LIMITED, priority 1992, dated 1993).
